Consider one compound from patent publication US11554103B2, “Compositions and methods to reduce pharmaceutical-induced toxicity” (priority 2016, dated 2023).

Data set [1] deals with tyrosine hydroxylase positive cells in the SNc. The experiment in a line: Methamphetamine 14 days plus 14 days withdrawal, stereology of tyrosine hydroxylase positive cells (Example 1). The data set is classed as in vivo, mouse. The following applies: 5 mg/kg methamphetamine for 14 days, sacrificed after 14 days withdrawal. The method, then:
Animals and treatment paradigms: Male C57/B16 and TH-mitoroGFP (Guzman et al., 2010 Nature p. 696; incorporated by reference in its entirety) mice 5-8 wks of age were used for all imaging studies. In addition to the TH-mitoroGFP transgenic line, roGFP was virally delivered into the SNc of C57/B16 mice (either targeting cytosolic or mitochondrial compartments).
Stereology: Brains were fixed with 4% paraformaldehyde and serial coronal sections ([…]) were stained for tyrosine hydroxylase. Total number of tyrosine hydroxylase positive cells were counted in the SNc with the optical fractionator method (West et al., 1991 Anat Rec p. 482; Ilijic et al., 2011 Neurobiol Dis p. 364; incorporated by reference in their entireties).

The test system of data set [2] is substantia nigra pars compacta dopaminergic neurons. Description: Chronic in vivo methamphetamine administration for 28 days, stereology and striatal optical density (Example 2). The settings on record: 28 consecutive days. The protocol: Immunohistochemistry and stereological analysis: Mice were terminally anesthetized with a mixture of ketamine (50 mg/kg)/xylazine (4.5 mg/kg) and transcardially perfused with 4% paraformaldehyde, post-fixed overnight and cryoprotected in 30% sucrose/phosphate buffered saline (PBS) at 4° C. until use. Serial coronal sections (60 μm thick) were collected throughout the midbrain and striatum. To stain for tyrosine hydroxylase the anti-tyrosine hydroxylase polyclonal antibody (Millipore) 1:2000 followed by goat anti-rabbit IgG biotin conjugated antibody (Millipore) 1:500 with normal goat serum blocking solution was used; after antibody incubation and rinsing with PBS, sections were incubated with ABC Elite Kit (Vector) and processed for diaminobenzidine reaction. Slices were mounted on slides, allowed to dry overnight, dehydrated in ascending alcohol concentrations and mounted with DPX mountant (Sigma). The estimated number of tyrosine hydroxylase positive (TH^+) cells were stereologically counted as previously described.^27 Slices from DAT-Cre X Ai14 mice expressing TdTomato in dopaminergic neurons were mounted on slides, allowed to dry, and mounted with Prolong Gold antifade mountant (Invitrogen). The estimated number of tdTomato expressing cells were stereologically counted. Sampling for stereological quantification was done using an Olympus BX41 microscope with motorized stage (Applied Scientific Instrumentation) and computerized stereology software (Stereologer). The SNc was delineated in each animal in every other section and cells counted using a 40×/0.65NA Olympus lens.
Drug application in ex vivo brain slice or iPSC experiments was performed via perfusion in aCSF.

The test system of a further data set is SNc dopaminergic neurons. Description: Pacemaking frequency in ex vivo slices. The settings on record: 10 μM methamphetamine. The data set is classed as cell-based, mouse.

“Also recorded” adds a separate entry of the source.

Turning to `CNC(C)Cc1ccccc1` (centres unmarked) [methamphetamine, N-methylamphetamine], the “tyrosine hydroxylase positive (TH+) cells” value in data set [1] was “loss of TH+ cells”. Further, in data set [2] (5 mg/kg methamphetamine ip), the “tyrosine hydroxylase expressing neurons (TH+ neurons) in the SNc, stereological quantification” value was “significantly decreased tyrosine hydroxylase (TH) immunoreactivity in the SNc; also recorded: loss of tyrosine hydroxylase expressing neurons”. In data set [2] (5 mg/kg methamphetamine), the “SNc axons in the striatum, optical density measurements” value is “loss of tdTomato fluorescence in both the striatum and SNc neurons; also recorded: loss of SNc axons in the striatum”; the “labeled (tdTomato) SNc neurons, Dat-Cre X Ai14 mice, stereological quantification” value was “loss of tdTomato fluorescence in both the striatum and SNc neurons”. The pacemaking frequency result in the data set on SNc dopaminergic neurons is “attenuated”.
